Measurements: publication PMC6353801, “Enhanced Anti-diabetic Effect of Berberine Combined With Timosaponin B2 in Goto-Kakizaki Rats, Associated With Increased Variety and Exposure of Effective Substances Through Intestinal Absorption” (Frontiers in Pharmacology, 2019)
Where “and” joins values, the source holds several entries; their conditions need not be identical. Equal values may be shown once.

Legend:
[1] = tested on: primary rat hepatocytes; assay: Hepatic metabolism in primary hepatocytes; settings: 3 h
[2] = Liver distribution in Wistar rats; settings: for increase in AUC on co-administration vs single treatment / increase in Cmax on co-administration vs single treatment / AUC ± SE / Cmax / Tmax / exposure (AUC) of metabolite as share of the exposure of BBR: Wistar rats; for increase in AUC on co-administration vs single treatment / increase in Cmax on co-administration vs single treatment / AUC ± SE / Cmax / half-life / Tmax / exposure (AUC) of metabolite as share of the exposure of BBR: liver; for AUC ± SE / Cmax / half-life / Tmax: n = 5; for Cmax / half-life / Tmax: male, Wistar, rat, po; for Cmax: Cmax ± SE; for half-life: T1/2, Wistar rats
[3] = PK in systemic plasma of Wistar rats (after hepatic clearance) and liver extraction ratio; settings: for ERliver (liver extraction ratio): (AUCpor−AUCsys)/AUCpor; for increase in AUC on co-administration vs single treatment / Tmax / AUC / Cmax / half-life / AUC ratio between M1 and BBR: systemic plasma; for Tmax: n = 5
[4] = PK in systemic plasma of GK rats after repeated oral administration (day 35); type: in vivo, rat; settings: GK rats, systemic plasma; for increase in AUC on combination vs single treatment / increase in Cmax on combination vs single treatment: day 35; for Cmax / half-life / Tmax / AUC: male, GK, rat, po, mean ± SE, n = 8; for Cmax / half-life / Tmax: plasma; for half-life: read-out: T1/2 (converted); for Tmax: read-out: Tmax; for AUC: read-out: AUC
Experimental: Analyses were performed on a Shimadzu LCMS-8030 triple quadrupole system (Shimadzu Corp., Japan) equipped with an electrospray ionization source. Data processing was performed using Shimadzu LC–MS LabSolutions (version 5.42 SP4, Shimadzu, Japan). Chromatographic separation was carried out on a Waters CORTECS C18+ column (100 mm × 2.1 mm, 2.7 μm, Ireland) with a security guard C18+ column (5 mm × 2.1 mm, 2.7 μm, Ireland). […] The gradient elution was 85% B from 0 to 2.5 min, 85% B–83% B from 2.5 to 3.0 min, 83% B from 3.0 to 6.0 min, 83% B–40% B from 6.0 to 6.5 min, 40% B from 6.5 to 7.0 min, 40% B–85% B from 7.0 to 7.2 min, and 85% B from 7.2 to 12 min. […] The optimized precursor-to-product ion pairs (collision energy) were in the positive mode as follows: m/z 579.20–255.15 (28 V) for TB-2 (at 4.1 min) and timosaponin A3 (at 6.1 min) and 271.50–154.70 (25 V) for tolbutamide (IS, at 5.8 min). […] If the concentrations of the compounds were over the linear range, the relevant samples were diluted with blank matrix by a factor of 10. […] Four-week-old male GK rats were fed a high-fat diet, and age-matched non-diabetic Wistar rats were fed standard chow as the control group. Under these dietary conditions, blood glucose was estimated each week for 7 weeks in 12-h fasted rats using a portable glucometer (One Touch Sure Step Meter, Johnson & Johnson, United States) by drawing the blood from the tail vein. GK rats with fasting blood glucose levels (FBG) above 16.7 mM were considered as diabetic rats, and only uniformly diabetic rats were used in this study. […] All the drugs were suspended in 0.5% carboxymethylcellulose sodium (CMC-Na) solution for oral gavage (10 ml/kg) once per day (at 9:00) for 6 weeks. Simultaneously, the Wistar and vehicle groups received vehicle over the treatment period. Food consumption and body weight were measured every week throughout the experimental periods. Non-fasting blood glucose (NFBG) levels were determined by collecting blood samples from the tail vein (at 9:00), and FBG levels were determined after a 6-h fast (at 15:00) on days 0, 7, 14, 21, and 42. On day 28, an oral glucose tolerance test (OGTT) was performed after an overnight fast. […] On day 42, the rats were anesthetized with urethane (1.4 g/kg, dissolved in saline) after an overnight fast and were sacrificed to collect the liver, kidney, heart, and spleen. The organs were weighed after washing with saline and drying to calculate the organ coefficient, namely, the ratio between the weight of organs and the body in each rat. The liver samples were diluted with 3 volumes (0.5 g/1.5 ml) of saline and homogenized. The liver homogenates and plasma samples (100 μl) were precipitated with three volumes of acetonitrile (containing 10 μg/ml tolbutamide). […] Then, 100 μl of the original mobile phase was added, and the samples were vortexed for 5 min and centrifuged at 13,000 rpm at 4°C for 10 min. Finally, the supernatant was used for HPLC–QQQ–MS/MS analysis. A non-compartmental analysis was performed using WinNonlin software (Pharsight 6.2, Raleigh, NC, United States) to calculate the PK parameters. The significance of PK parameters in normal rats, generated by the sparse method in WinNonlin, was assessed with Welch’s unequal variances t-test. The significance of the other results was assessed using two-tailed Student’s t-tests. Statistical significance was defined as P < 0.05.

[5] = PK in portal vein plasma of Wistar rats (before hepatic clearance); settings: for AUC / Cmax / Tmax / half-life: male, Wistar, rat, po
[6] = single oral BBR 66.7 mg/kg alone
[7] = single oral BBR+TB-2 (66.7+33.3 mg/kg)
[8] = 33.3 mg/kg, single oral BBR+TB-2 (66.7+33.3 mg/kg)
[9] = 66.7 mg/kg, single oral BBR 66.7 mg/kg alone
[10] = Wistar rats, oral BBR 66.7 mg/kg alone
[11] = Wistar rats, oral BBR+TB-2 (100 mg/kg)
[12] = Wistar rats, TB-2+BBR treatments
[13] = male, Wistar, rat, plasma, po, 66.7 mg/kg, Tmax, Wistar rats, single oral BBR 66.7 mg/kg alone
[14] = male, Wistar, rat, po, 66.7 mg/kg
[15] = male, Wistar, rat, po, 100 mg/kg
[16] = male, Wistar, rat, po, 100 mg/kg, Tmax, Wistar rats, single oral BBR+TB-2 (100 mg/kg)
[17] = 33.3 mg/kg, day 35, oral BBR+TB-2 (66.7+33.3 mg/kg)
[18] = 66.7 mg/kg, day 35, oral BBR 66.7 mg/kg alone

SMILES: COc1ccc2cc3[n+](cc2c1OC)CCc1cc2c(cc1-3)OCO2 [BBR, berberine]
- share of compound disappearing after incubation ([1]; BBR 1 μM, 37°C): approximately 80%
- effect on TB-2 levels after incubation ([1]; TB-2 1 μM, BBR (5 μM, 30 μM)): no improvement
- increase in AUC on co-administration vs single treatment [2]: didn’t elicit statistical significance
- increase in Cmax on co-administration vs single treatment [2]: 136%
- AUC ± SE [2, 6]: 3255.1 ± 247.5 h ∗ ng/g
- AUC ± SE [2, 7]: 4600.3 ± 645.1 h ∗ ng/g
- Cmax [2, 8]: 1880 ± 418 ng/g
- half-life [2, 8]: 6.9 h
- Tmax [2, 8]: 2 h
- Cmax [2, 9]: 795 ± 157 ng/g
- half-life [2, 9]: 14.8 h
- Tmax [2, 9]: 2 h
- improvement of levels on co-administration ([2]; normal rats, in the plasma and liver): 41–114%
- ERliver (liver extraction ratio) [3, 10]: 87.3%
- ERliver (liver extraction ratio) [3, 11]: 90.0%
- AUC in portal vein plasma, fold higher than in systemic plasma ([3]; Wistar rats, BBR treatments): 6.9 fold
- AUC in portal vein plasma, fold higher than in systemic plasma [3, 12]: 9.1 fold
- AUC in portal vein plasma, fold higher than in systemic plasma (discussion) ([3]; Wistar rats, single or combination treatments): approximately 10 fold
- increase in AUC on co-administration vs single treatment ([3]; Wistar rats): didn’t increase
- Tmax ([3]; Wistar rats, single oral BBR 66.7 mg/kg alone): 0.2 h
- Tmax [3, 13]: 0.167 h
- AUC [3, 14]: 25.1 ± 4.1 ng·h/mL
- Cmax [3, 14]: 11.1 ± 3.4 ng/mL
- half-life [3, 14]: 1.9 h
- AUC [3, 15]: 42.1 ± 11.7 ng·h/mL
- Cmax [3, 15]: 10.8 ± 3.9 ng/mL
- half-life [3, 15]: 2.3 h
- Tmax [3, 16]: 2 h
- increase in AUC on combination vs single treatment [4]: 107%
- increase in Cmax on combination vs single treatment [4]: 695%
- Cmax [4, 17]: 42.2 ± 17.4 ng/mL
- half-life [4, 17]: 9.3 ± 2.5 h
- Tmax [4, 17]: 0.9 ± 0.1 h
- Cmax [4, 18]: 5.3 ± 0.4 ng/mL
- half-life [4, 18]: 28.1 ± 11.7 h
- Tmax [4, 18]: 4.6 ± 1.5 h
- AUC [4, 17]: 155 ± 59.7 ng·h/mL
- AUC [4, 18]: 74.8 ± 3.5 ng·h/mL
- increase in AUC on co-administration vs single treatment ([5]; Wistar rats): 114%
- AUC ([5]; 66.7 mg/kg): 198 ± 22.2 ng·h/mL
- Cmax ([5]; 66.7 mg/kg): 63.1 ± 18.5 ng/mL
- Tmax ([5]; 66.7 mg/kg): 2 h
- half-life ([5]; 66.7 mg/kg): 9.8 h
- AUC ([5]; 100 mg/kg): 424 ± 60.5 ng·h/mL
- Cmax ([5]; 100 mg/kg): 145 ± 50.3 ng/mL
- Tmax ([5]; 100 mg/kg): 2 h
- half-life ([5]; 100 mg/kg): 10.5 h

SMILES: COc1ccc2cc3[n+](cc2c1O)CCc1cc2c(cc1-3)OCO2 [M1, Berberrubine]
- increase in AUC on co-administration vs single treatment [2]: 282%
- increase in Cmax on co-administration vs single treatment [2]: 109%
- exposure (AUC) of metabolite as share of the exposure of BBR ([2]; TB-2+BBR treatments): 77% and 77.5%
- AUC ± SE [2, 6]: 932.5 ± 155.4 h ∗ ng/g
- AUC ± SE [2, 7]: 3565.3 ± 256.7^∗∗∗ h ∗ ng/g
- exposure (AUC) of metabolite as share of the exposure of BBR ([2]; single treatment (On TB-2 treatments)): 29% and 28.6%
- Cmax [2, 8]: 238 ± 39.5 ng/g
- half-life [2, 8]: 4.2 h
- Tmax [2, 8]: 6 h
- Cmax [2, 9]: 114 ± 10.6 ng/g
- half-life [2, 9]: 4.6 h
- Tmax [2, 9]: 4 h
- ERliver (liver extraction ratio) [3, 10]: 81.9%
- ERliver (liver extraction ratio) [3, 11]: 81.3%
- AUC in portal vein plasma, fold higher than in systemic plasma ([3]; Wistar rats, BBR treatments): approximately fivefold
- AUC in portal vein plasma, fold higher than in systemic plasma [3, 12]: approximately fivefold
- increase in AUC on co-administration vs single treatment ([3]; Wistar rats): 95%
- AUC ratio between M1 and BBR ([3]; Wistar rats, BBR treatments): 40.2%
- AUC ratio between M1 and BBR [3, 12]: 46.8%
- Tmax [3, 13]: 6 h
- AUC [3, 14]: 10.1 ± 0.6 ng·h/mL
- Cmax [3, 14]: 1 ± 0.2 ng/mL
- half-life [3, 14]: 5.8 h
- AUC [3, 15]: 19.7 ± 2.9 ng·h/mL
- Cmax [3, 15]: 2 ± 0.2 ng/mL
- half-life [3, 15]: 1.9 h
- Tmax [3, 16]: 9 h
- levels of M1 as share of the parent drug ([4]; BBR treatments): 75%
- levels of M1 as share of the parent drug ([4]; TB-2+BBR treatments): 61%
- increase in AUC on combination vs single treatment [4]: didn’t significantly increase
- increase in Cmax on combination vs single treatment [4]: didn’t significantly increase
- Cmax [4, 17]: 6.6 ± 2 ng/mL
- half-life [4, 17]: 23.9 ± 7.4 h
- Tmax [4, 17]: 9.4 ± 1.2 h
- Cmax [4, 18]: 4.3 ± 1.7 ng/mL
- half-life [4, 18]: 100 ± 92.2 h
- Tmax [4, 18]: 10.4 ± 3.1 h
- AUC [4, 17]: 94.9 ± 26.4 ng·h/mL
- AUC [4, 18]: 56.3 ± 18.5 ng·h/mL
- increase in AUC on co-administration vs single treatment ([5]; Wistar rats): 89%
- increase in Cmax on co-administration vs single treatment ([5]; Wistar rats): 105%
- AUC ratio between M1 and BBR ([5]; Wistar rats, BBR treatments): 28.1%
- AUC ratio between M1 and BBR [5, 12]: 24.9%
- AUC ([5]; 66.7 mg/kg): 55.7 ± 3.5 ng·h/mL
- Cmax ([5]; 66.7 mg/kg): 3.5 ± 1 ng/mL
- Tmax ([5]; 66.7 mg/kg): 6 h
- half-life ([5]; 66.7 mg/kg): 9.7 h
- AUC ([5]; 100 mg/kg): 106 ± 6.2 ng·h/mL
- Cmax ([5]; 100 mg/kg): 7.2 ± 1.5 ng/mL
- Tmax ([5]; 100 mg/kg): 9 h
- half-life ([5]; 100 mg/kg): 7 h
